Tests used:
[1] = test system: Magnaporthe grisea (Pyricularia oryzae—PYRIOR); assay: microbe, parasite or virus in culture; format: cell-based; conditions: for inhibition at 25 ppm: Pyricularia oryzae, read-out: PYRIOR in vitro Growth Inhibition
[2] = test system: Rhizoctonia solani (RHIZSO); assay: microbe, parasite or virus in culture; format: cell-based; conditions: for inhibition at 25 ppm: Rhizoctonia solani, read-out: RHIZSO in vitro Growth Inhibition
[3] = test system: Mycosphaerella graminicola (Septoria tritici—SEPTTR); assay: In vitro fungal growth inhibition, Mycosphaerella graminicola (SEPTTR); format: cell-based; conditions: 25 ppm in growth medium; for inhibition at 25 ppm: Zymoseptoria tritici, read-out: SEPTTR in vitro Growth Inhibition
[4] = test system: Stagonospora nodorum (Leptosphaeria nodorum—LEPTNO); assay: In vitro fungal growth inhibition, Stagonospora nodorum (LEPTNO); format: cell-based; conditions: 25 ppm in growth medium; for inhibition at 25 ppm: Leptosphaeria, read-out: LEPTNO in vitro Growth Inhibition
Ustilago maydis (USTIMA) = assay: microbe, parasite or virus in culture; format: cell-based; conditions: for inhibition at 25 ppm: Mycosarcoma maydis, read-out: USTIMA in vitro Growth Inhibition
[5] = test system: Phytophthora infestans (PHYTIN); assay: microbe, parasite or virus in culture; format: cell-based; conditions: for inhibition at 25 ppm: Phytophthora infestans, read-out: PHYTIN in vitro Growth Inhibition
[6] = test system: Phytophthora infestans—PHYTIN; assay: whole plant or invertebrate; format: in vivo; conditions: for pest or weed control at 100 ppm: Phytophthora, in Solanum lycopersicum, 24 h, read-out: PHYTIN in vivo 1 Day Protectant
[7] = test system: Puccinia recondita—PUCCRT; assay: Brown Rust of Wheat, in vivo whole plant, 24 Hour Protectant; conditions: 100 ppm spray, wheat, 24 hour protectant, control of fungal infection vs untreated plants; for pest or weed control at 100 ppm: Puccinia, read-out: PUCCRT in vivo 1 Day Protectant
Erysiphe graminis—ERYSGT = assay: Powdery Mildew of Wheat, in vivo whole plant, 24 Hour Protectant; conditions: 100 ppm spray, wheat, 24 hour protectant, control of fungal infection vs untreated plants; for pest or weed control at 100 ppm: Erysiphe, read-out: ERYSGT in vivo 1 Day Protectant
Septoria tritici—SEPTTR = assay: Leaf Blotch of Wheat, in vivo whole plant, 24 Hour Protectant; conditions: 100 ppm spray, wheat, 24 hour protectant, control of fungal infection vs untreated plants; for pest or weed control at 100 ppm: Zymoseptoria tritici, 24 h, read-out: SEPTTR in vivo 1 Day Protectant
[8] = test system: Leptosphaeria nodorum—LEPTNO; assay: Glume Blotch of Wheat, in vivo whole plant, 24 Hour Protectant; conditions: 100 ppm spray, wheat, 24 hour protectant, control of fungal infection vs untreated plants; for pest or weed control at 100 ppm: Leptosphaeria, read-out: LEPTNO in vivo 1 Day Protectant

| Compound | inhibition at 25 ppm [1] [%] | inhibition at 25 ppm [2] [%] | inhibition at 25 ppm [3] [%] | inhibition at 25 ppm [4] [%] | inhibition at 25 ppm (Ustilago maydis (USTIMA)) [%] | inhibition at 25 ppm [5] [%] | pest or weed control at 100 ppm [6] [%] | pest or weed control at 100 ppm [7] [%] | pest or weed control at 100 ppm (Erysiphe graminis—ERYSGT) [%] | pest or weed control at 100 ppm (Septoria tritici—SEPTTR) [%] | pest or weed control at 100 ppm [8] [%] | other results |
| --- | --- | --- | --- | --- | --- | --- | --- | --- | --- | --- | --- | --- |
| COc1ccnc(C(=O)NC(COC(=O)CCc2ccccc2)C(=O)OC(C)COC(=O)C(C)C)c1O (centres unmarked) [Compound 358] | < 80 | < 80 | < 80 | < 80 | < 80 | < 80 | < 25 | 25 to 74 | < 25 | 25 to 74 | 25 to 74 |  |
| COc1ccnc(C(=O)NC(COC(=O)CCc2ccccc2)C(=O)OC(C)COC(=O)C(C)C)c1O (centres unmarked) [Compound 359] |  |  |  |  |  |  |  |  |  |  |  | PYRIOR in vitro Growth Inhibition ([1]; 25 ppm in growth medium): − (less than 80% growth inhibition); RHIZSO in vitro Growth Inhibition [2]: − (key: +: at least 80% growth inhibition; −: less than 80% growth inhibition); SEPTTR in vitro Growth Inhibition [3]: − (less than 80% growth inhibition); LEPTNO in vitro Growth Inhibition [4]: − (less than 80% growth inhibition); USTIMA in vitro Growth Inhibition (Ustilago maydis (USTIMA)): − (key: +: at least 80% growth inhibition; −: less than 80% growth inhibition); PHYTIN in vitro Growth Inhibition ([5]; 25 ppm in growth medium): − (less than 80% growth inhibition); PHYTIN in vivo 1 Day Protectant ([6]; 100 ppm spray, tomato, 24 hour protectant, control of fungal infection vs untreated plants): − (<25% control of fungal infection); PUCCRT in vivo 1 Day Protectant [7]: + +; ERYSGT in vivo 1 Day Protectant (Erysiphe graminis—ERYSGT): − (<25% control of fungal infection); SEPTTR in vivo 1 Day Protectant (Septoria tritici—SEPTTR): + +; LEPTNO in vivo 1 Day Protectant [8]: + (25-74% control of fungal infection) |
| COc1ccnc(C(=O)NC(C(=O)OCC(C)C)C(C)OC(=O)C(C)Cc2ccccc2)c1O (centres unmarked) [Compound 360] | < 80 | < 80 | < 80 | < 80 | < 80 | < 80 | < 25 | 25 to 74 | < 25 | 25 to 74 |  | LEPTNO in vivo 1 Day Protectant [8]: + + |
| COc1ccnc(C(=O)N[C@H](C(=O)O[C@@H](C)[C@H](OC(=O)C(C)C)[C@@H](Cc2ccccc2)C(=O)OCc2ccccc2)[C@@H](C)OC(C)=O)c1O [Compound 361] | > 80 | < 80 | > 80 | < 80 | < 80 | > 80 | < 25 |  | < 25 | < 25 | 25 to 74 | PUCCRT in vivo 1 Day Protectant [7]: + + |
| COc1ccnc(C(=O)NC2COC(=O)CC(c3ccccc3)C(=O)OC2)c1O (centres unmarked) [Compound 375] | < 80 | < 80 | < 80 | < 80 | < 80 | < 80 | < 25 | < 25 | < 25 | 25 to 74 | 25 to 74 |  |
| COc1ccnc(C(=O)NC2CC(=O)OCC(C)COC2=O)c1O (centres unmarked) [Compound 378] | < 80 | < 80 | < 80 | < 80 | < 80 | < 80 | < 25 | < 25 | < 25 | < 25 | 25 to 74 |  |
| COc1ccnc(C(=O)N[C@@H]2C(=O)O[C@@H](C)C[C@@H](C)C(=O)O[C@@H]2C)c1O [Compound 381] | < 80 | < 80 | > 80 | > 80 | < 80 | < 80 | < 25 | 25 to 74 | < 25 | < 25 | < 25 |  |

— patent publication US6706740B2, “Fungicidal heterocyclic aromatic amides and their compositions, methods of use and preparation” (Dow AgroSciences LLC, priority 1999, dated 2004)
